EC30 data for 30 molecules are collected here from ChEMBL document CHEMBL1126972, “Synthesis of 2-imidazolidinylidenepropanedinitrile derivatives as stimulators of gastrointestinal motility” (J Med Chem, 1993).

In experiment [1] the target is Acetylcholinesterase (Homo sapiens) (UniProt P22303). The conditions noted are these: Cavia porcellus; Ileum.
Experiment [2] is filed under the species Cavia porcellus. The experiment in a line: In vitro gastrointestinal motility enhancing activity was determined by potentiating action on electrically evoked contraction of the isolated guinea pig ileum; the maximum contraction was not achieved to 30%. It counts as functional.
The species named for experiment [3] is Cavia porcellus. The experiment in a line: In vitro gastrointestinal motility enhancing activity was determined by potentiating action on electrically evoked contraction of the isolated guinea pig ileum; no effect. It counts as functional.
Experiment [4] is filed under the species Cavia porcellus. The experiment in a line: In vitro gastrointestinal motility enhancing activity was determined by potentiating action on electrically evoked contraction of the isolated guinea pig ileum;No effect. It counts as functional.

Calls of active or inactive are those of the source. The rule behind the calls is not given here.

Chain of Acetylcholinesterase (Homo sapiens) (P22303 whole entry): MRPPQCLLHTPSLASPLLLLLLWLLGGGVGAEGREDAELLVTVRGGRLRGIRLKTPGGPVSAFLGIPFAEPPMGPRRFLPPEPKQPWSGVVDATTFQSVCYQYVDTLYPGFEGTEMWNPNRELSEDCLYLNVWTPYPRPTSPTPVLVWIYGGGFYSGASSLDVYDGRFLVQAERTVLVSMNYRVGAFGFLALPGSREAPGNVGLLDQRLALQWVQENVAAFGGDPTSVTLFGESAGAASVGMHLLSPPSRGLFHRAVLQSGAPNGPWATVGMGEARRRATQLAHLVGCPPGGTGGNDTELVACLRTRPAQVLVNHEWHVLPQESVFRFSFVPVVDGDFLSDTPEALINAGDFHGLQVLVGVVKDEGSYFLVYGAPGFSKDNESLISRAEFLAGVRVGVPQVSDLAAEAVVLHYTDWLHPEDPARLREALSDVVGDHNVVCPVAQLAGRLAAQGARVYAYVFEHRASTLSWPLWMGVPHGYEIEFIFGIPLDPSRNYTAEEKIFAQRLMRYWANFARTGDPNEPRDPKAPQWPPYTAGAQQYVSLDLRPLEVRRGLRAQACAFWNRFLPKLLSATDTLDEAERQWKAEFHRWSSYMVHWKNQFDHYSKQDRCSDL

As for `CNC(NCCNCc1ccc(CN(C)C)o1)=C(C#N)C#N`, in experiment [1], the EC30 – broadly, the concentration at which the effect reaches the 30% level – came out at 2100 nM. Regarding `CN(C)C(=O)Oc1cccc([N+](C)(C)C)c1`, the EC30 entry in the experiment filed under Cavia porcellus [2] was “inactive”.

Molecule `CCN(CC)CCNC(=O)c1cc(Cl)c(N)cc1OC` showed an EC30 in experiment [1] of 430 nM. Turning to `CCN(CC)Cc1ccc(CNCCN2CCNC2=C(C#N)C#N)o1`, in experiment [1], the concentration for an effect of 30% (EC30) was 1000 nM. On the same count and under the same terms, the figure for `N#CC(C#N)=C1NCCN1CCNCc1ccc(CN2CCC(O)CC2)o1` is 430 nM. As to `CN(C)Cc1ccc(CNCCN2CCN/C2=C\[N+](=O)[O-])o1`, the EC30 result in the experiment filed under Cavia porcellus [3] was “inactive”.

In turn, `CN1CCN(Cc2ccc(CNCCN3CCNC3=C(C#N)C#N)o2)CC1` showed an EC30 in experiment [1] of 1700 nM.

Consider `CNC(NCCNCc1ccc(COC)o1)=C(C#N)C#N`, for which the EC30 entry in the experiment filed under Cavia porcellus [3] was “inactive”. In experiment [1], `CC1CCCN(Cc2ccc(CNCCN3CCNC3=C(C#N)C#N)o2)C1` (stereo not given) returned an EC30 of 410 nM. The same measure, in the same setting: the figure for `CC1CCN(Cc2ccc(CNCCN3CCNC3=C(C#N)C#N)o2)CC1` is 260 nM.

Consider `CC1CCCC(C)N1Cc1ccc(CNCCN2CCNC2=C(C#N)C#N)o1` (stereo not given), for which, in the experiment filed under Cavia porcellus [3], the EC30 entry was “inactive”. `CC1CCCCN1Cc1ccc(CNCCN2CCNC2=C(C#N)C#N)o1` (stereo not given) came in with an EC30 in experiment [1] of 910 nM. In turn, `N#CC(C#N)=C1NCCN1CCNCc1ccc(CN2CCSCC2)o1` gave an EC30 in experiment [1] of 2900 nM.

In experiment [1], `CNC(NCCNCc1ccc(CN2CCCC2)o1)=C(C#N)C#N` showed an EC30 of 2000 nM. In the case of `CNC(NCCNCc1ccc(CN(C(C)C)C(C)C)o1)=C(C#N)C#N`, it took 8500 nM to reach the 30% level in experiment [1] (EC30). Still for that read-out and setting: the figure for `COC1CCN(Cc2ccc(CNCCN3CCNC3=C(C#N)C#N)o2)CC1` is 11000 nM. The same measure, in the same setting: the figure for `C/N=c1\c(O)c(O)\c1=N/CCNCc1ccc(CN2CCCCC2)o1` is 7200 nM; for `CCN(C)Cc1ccc(CNCCN2CCNC2=C(C#N)C#N)o1` it is 540 nM; for `N#CC(C#N)=C1NCCN1CCNCc1ccc(CN2CCOCC2)o1` it is 13000 nM. Still for that read-out and setting: the figure for `CN(C)Cc1ccc(CNCCN2CCNC2=C(C#N)C#N)o1` is 370 nM.

`CNC(NCCNCc1ccc(CN2CCCCC2)o1)=C(C#N)C#N` registered an EC30 in experiment [1] of 4100 nM. Same read-out and setting: the figure for `N#CC(C#N)=C1NCCN1CCNCc1ccc(CN2CCCC2)o1` is 310 nM.

Regarding `CNC(=C[N+](=O)[O-])NCCSCc1ccc(CN(C)C)o1`, the 30% effect level in experiment [1] (EC30) was put at 1800 nM. On the same count and under the same terms, the figure for `N#CC(C#N)=C1NCCN1CCNCc1ccc(CN2CCCCC2)o1` is 16 nM. Consider `COc1cc(N)c(Cl)cc1C(=O)NCCNCc1ccc(CN(C)C)o1`, for which, in the experiment listed under Cavia porcellus [4], the EC30 result was “No effect”.

In experiment [1], `N#CC(C#N)=C1NCCN1CCNCc1ccc(CN2CC=CCC2)o1` yielded an EC30 of 81 nM. `N#CC(C#N)=C1NCCN1CCNCc1ccc(CN2CCCC(O)C2)o1` (stereo not given) had an EC30 in experiment [1] of 460 nM. With `N#CC(C#N)=C1Nc2ccccc2N1CCNCc1ccc(CN2CCCCC2)o1`, the EC30 entry in the experiment listed under Cavia porcellus [3] was “inactive”.

In experiment [1], `N#CC(C#N)=C1NCCN1CCNCc1ccc(CN2CCCCCC2)o1` displayed an EC30 of 320 nM. `COC1CCCN(Cc2ccc(CNCCN3CCNC3=C(C#N)C#N)o2)C1` (stereo not given) displayed an EC30 in experiment [1] of 1400 nM.
